Laboratory results from publication PMC11558128 (Advanced Science, 2024).
Substitutions are numbered along the chain they refer to. Read-outs that look alike come from different tables or passages of the source. Positions of bridges follow the written chain, without caps; N, C: chain ends. Residues, ends and D or L forms follow the SMILES beside them.

Tests used:
[1] = test system: other Kv channels (hKv1.1-1.5, rKv2.1, hKv3.1-3.4, mKv4.1, hKv7.2 and hERG); conditions: 1 µM toxin; n = 3-4
rKv4.2 V278A = biological target: T1, rKv4.2 V278A (Rattus norvegicus, UniProt Q63881, V278A); experiment: cell-based; conditions: mean ± SEM
T1 construct: expressed in transfected cells; host or cells: HEK293T
T1 sequence (Q63881 1-630 V278A): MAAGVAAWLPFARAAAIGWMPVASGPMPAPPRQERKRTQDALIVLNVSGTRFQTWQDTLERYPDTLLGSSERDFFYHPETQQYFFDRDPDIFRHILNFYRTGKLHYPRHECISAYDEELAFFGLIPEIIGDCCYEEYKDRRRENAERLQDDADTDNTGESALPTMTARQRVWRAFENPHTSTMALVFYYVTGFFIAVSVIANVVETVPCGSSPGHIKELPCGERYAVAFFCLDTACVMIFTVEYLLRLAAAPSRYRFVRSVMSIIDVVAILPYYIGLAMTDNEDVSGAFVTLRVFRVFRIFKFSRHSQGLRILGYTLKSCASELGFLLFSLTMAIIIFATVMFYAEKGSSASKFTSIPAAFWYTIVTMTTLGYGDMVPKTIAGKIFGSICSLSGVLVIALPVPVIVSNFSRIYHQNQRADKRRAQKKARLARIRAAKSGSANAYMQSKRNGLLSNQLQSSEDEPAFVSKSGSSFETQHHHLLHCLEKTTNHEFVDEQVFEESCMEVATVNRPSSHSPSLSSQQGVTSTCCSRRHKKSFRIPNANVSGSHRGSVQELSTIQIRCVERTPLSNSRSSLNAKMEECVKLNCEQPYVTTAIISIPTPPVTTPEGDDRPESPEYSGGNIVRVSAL

rKv4.2 D281K = biological target: T2, rKv4.2 D281K (Rattus norvegicus, UniProt Q63881, D281K); experiment: cell-based; conditions: mean ± SEM
T2 construct: expressed in transfected cells; host or cells: HEK293T
T2 sequence (Q63881 1-630 D281K): T1 sequence (Q63881 1-630 V278A) with A278V, D281K

rKv4.2 E283K = biological target: T3, rKv4.2 E283K (Rattus norvegicus, UniProt Q63881, E283K); experiment: cell-based; conditions: mean ± SEM
T3 construct: expressed in transfected cells; host or cells: HEK293T
T3 sequence (Q63881 1-630 E283K): T1 sequence (Q63881 1-630 V278A) with A278V, E283K

hNav1.7 = biological target: T4, hNav1.7 (Homo sapiens, UniProt Q15858); experiment: cell-based; conditions: whole-cell patch clamp, mean ± S.E.M., SEM
T4 construct: expressed in transfected cells; host or cells: HEK293T
T4 sequence (O60939 30-215): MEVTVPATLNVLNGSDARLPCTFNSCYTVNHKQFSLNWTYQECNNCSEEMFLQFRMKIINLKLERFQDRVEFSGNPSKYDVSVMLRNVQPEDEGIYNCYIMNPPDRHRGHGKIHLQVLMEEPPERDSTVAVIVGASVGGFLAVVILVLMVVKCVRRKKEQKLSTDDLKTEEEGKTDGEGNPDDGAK
T4 sequence (Q15858 other isoform, or with tags, fused parts or gaps): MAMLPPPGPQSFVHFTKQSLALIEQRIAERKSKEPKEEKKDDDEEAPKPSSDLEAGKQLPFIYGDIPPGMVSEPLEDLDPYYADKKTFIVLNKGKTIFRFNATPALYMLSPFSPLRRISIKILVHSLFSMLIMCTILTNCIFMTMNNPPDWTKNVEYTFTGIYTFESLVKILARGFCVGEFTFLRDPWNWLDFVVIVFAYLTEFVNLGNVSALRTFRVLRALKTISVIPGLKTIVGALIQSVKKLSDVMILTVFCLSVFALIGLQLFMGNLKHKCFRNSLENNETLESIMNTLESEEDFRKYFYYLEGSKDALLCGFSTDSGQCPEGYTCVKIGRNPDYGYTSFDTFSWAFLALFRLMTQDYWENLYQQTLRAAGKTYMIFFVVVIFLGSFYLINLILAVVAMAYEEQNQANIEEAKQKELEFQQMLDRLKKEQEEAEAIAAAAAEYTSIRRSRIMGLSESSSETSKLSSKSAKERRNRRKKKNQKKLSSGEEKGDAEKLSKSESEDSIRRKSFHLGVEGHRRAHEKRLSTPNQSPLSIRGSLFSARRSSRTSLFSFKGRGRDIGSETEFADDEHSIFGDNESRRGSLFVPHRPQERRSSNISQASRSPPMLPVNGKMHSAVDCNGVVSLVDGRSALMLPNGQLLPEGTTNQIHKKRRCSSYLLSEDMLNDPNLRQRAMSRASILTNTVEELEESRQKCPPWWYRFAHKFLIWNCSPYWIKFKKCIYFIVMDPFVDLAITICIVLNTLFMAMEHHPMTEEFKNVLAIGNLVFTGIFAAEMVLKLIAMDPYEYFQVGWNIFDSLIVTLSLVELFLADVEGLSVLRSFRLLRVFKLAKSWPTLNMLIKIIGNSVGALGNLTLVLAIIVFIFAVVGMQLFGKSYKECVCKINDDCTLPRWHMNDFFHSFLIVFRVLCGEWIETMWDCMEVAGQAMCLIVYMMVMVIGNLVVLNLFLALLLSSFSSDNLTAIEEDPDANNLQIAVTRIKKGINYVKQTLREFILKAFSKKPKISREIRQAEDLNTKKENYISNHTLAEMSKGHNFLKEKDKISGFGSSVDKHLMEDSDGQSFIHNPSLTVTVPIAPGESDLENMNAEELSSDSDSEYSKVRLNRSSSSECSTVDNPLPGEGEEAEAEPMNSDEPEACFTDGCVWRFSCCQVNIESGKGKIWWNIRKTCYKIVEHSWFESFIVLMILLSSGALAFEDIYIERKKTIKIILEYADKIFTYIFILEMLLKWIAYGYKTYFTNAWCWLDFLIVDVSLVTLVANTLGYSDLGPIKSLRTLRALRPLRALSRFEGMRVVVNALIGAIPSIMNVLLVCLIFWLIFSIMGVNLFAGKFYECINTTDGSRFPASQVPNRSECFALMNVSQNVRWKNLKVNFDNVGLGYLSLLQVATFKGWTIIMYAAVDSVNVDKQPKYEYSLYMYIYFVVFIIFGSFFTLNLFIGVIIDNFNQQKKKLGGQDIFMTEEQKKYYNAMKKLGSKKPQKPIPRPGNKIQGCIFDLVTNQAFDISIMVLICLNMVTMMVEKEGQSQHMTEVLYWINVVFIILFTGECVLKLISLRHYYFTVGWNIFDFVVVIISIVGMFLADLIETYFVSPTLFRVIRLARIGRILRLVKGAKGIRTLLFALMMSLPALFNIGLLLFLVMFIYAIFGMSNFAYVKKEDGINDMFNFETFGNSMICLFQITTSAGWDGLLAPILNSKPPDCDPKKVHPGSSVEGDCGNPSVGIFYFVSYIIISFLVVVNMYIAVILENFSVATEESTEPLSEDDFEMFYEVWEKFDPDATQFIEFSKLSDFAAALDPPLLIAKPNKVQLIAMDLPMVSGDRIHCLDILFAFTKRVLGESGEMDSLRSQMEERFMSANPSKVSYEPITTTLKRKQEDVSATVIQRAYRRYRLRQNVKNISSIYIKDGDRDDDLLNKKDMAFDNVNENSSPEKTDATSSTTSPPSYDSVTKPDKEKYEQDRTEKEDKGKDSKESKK
T4 sequence (Q07699 19-218, further chain): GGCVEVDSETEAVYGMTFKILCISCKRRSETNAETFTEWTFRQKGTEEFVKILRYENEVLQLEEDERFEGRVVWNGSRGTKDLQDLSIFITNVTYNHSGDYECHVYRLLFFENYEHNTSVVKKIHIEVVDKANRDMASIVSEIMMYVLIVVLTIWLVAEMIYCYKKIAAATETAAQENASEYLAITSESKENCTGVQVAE

rKv4.2 N282A = biological target: T5, rKv4.2 N282A (Rattus norvegicus, UniProt Q63881, N282A); experiment: cell-based; conditions: mean ± SEM
T5 construct: expressed in transfected cells; host or cells: HEK293T
T5 sequence (Q63881 1-630 N282A): T1 sequence (Q63881 1-630 V278A) with A278V, N282A

[2] = HEK293T, hNav1.7 with β1 and β2, held at -90 mV, step to 0 mV, n = 3-7, read-out: IC50 for hNav1.7

Row | SMILES | effect on the current traces of other Kv channels [1] | IC50 (rKv4.2 V278A) [nM] | IC50 (rKv4.2 D281K) [nM] | IC50 (rKv4.2 E283K) [nM] | IC50 (hNav1.7; native toxin isolated from venom, n = 5, read-out: IC50 against hNav1.7, native HNTX-VIIa) [nM] | IC50 (hNav1.7; [2]) [nM] | IC50 (rKv4.2 N282A) [nM]
1 | CC(C)C[C@@H]1NC(=O)[C@H](Cc2c[nH]c3ccccc23)NC(=O)[C@H](Cc2ccc(O)cc2)NC(=O)[C@H](CCCNC(=N)N)NC(=O)[C@@H](NC(=O)[C@@H](N)CCC(=O)O)CSSC[C@@H]2NC(=O)[C@@H]3CSSC[C@@H](C(=O)N[C@H](C(=O)N[C@@H](Cc4c[nH]c5ccccc45)C(=O)N[C@@H](CC(=O)O)C(=O)N[C@@H](Cc4c[nH]c5ccccc45)C(=O)N[C@H](C(=O)N[C@@H](Cc4ccccc4)C(N)=O)[C@@H](C)O)C(C)C)NC(=O)[C@H](Cc4c[nH]c5ccccc45)NC(=O)CNC(=O)[C@H](Cc4c[nH]cn4)NC(=O)[C@H](CCCCN)NC(=O)[C@@H]4CCCN4C(=O)[C@H](CO)NC(=O)[C@H](CSSC[C@H](NC(=O)[C@H]([C@@H](C)O)NC(=O)CNC1=O)C(=O)N[C@@H](CO)C(=O)N[C@@H](CCCCN)C(=O)N[C@@H]([C@@H](C)O)C(=O)NCC(=O)N[C@@H](CC(=O)O)C(=O)N3)NC(=O)[C@H](CO)NC(=O)[C@H](CC(C)C)NC(=O)[C@H](Cc1c[nH]cn1)NC(=O)[C@H](CO)NC2=O [HNTX-VIIa] (H-ECRYWLGTCSKTGDCCSHLSCSPKHGWCVWDWTF-NH2; disulfide 2-16, 9-21, 15-28) | no obvious or only minimal effect | 53 ± 6 | 33 ± 6 | 62 ± 13 | 50.6 ± 4.6 | 80.4 ± 19.6 | 21 ± 1
2 | CC[C@H](C)[C@@H]1NC(=O)[C@@H]2CSSC[C@@H]3NC(=O)[C@H](C(C)C)NC(=O)[C@H](CC(C)C)NC(=O)[C@H](CC(N)=O)NC(=O)[C@@H]4CCCN4C(=O)[C@H](CCCNC(=N)N)NC(=O)[C@H](CSSC[C@H](NC(=O)[C@@H](N)CC(=O)O)C(=O)N[C@@H](CC(C)C)C(=O)NCC(=O)N[C@@H](C)C(=O)N[C@@H](Cc4ccccc4)C(=O)N[C@@H](CCCNC(=N)N)C(=O)N[C@@H](CCCCN)C(=O)N2)NC(=O)[C@H](CSSC[C@@H](C(=O)N[C@@H](CCCCN)C(=O)N[C@@H](Cc2ccc(O)cc2)C(=O)N[C@H](C(=O)N[C@@H](Cc2ccccc2)C(N)=O)C(C)C)NC(=O)[C@H](Cc2c[nH]c4ccccc24)NC(=O)[C@H](CCCNC(=N)N)NC(=O)[C@H](Cc2cnc[nH]2)NC(=O)[C@H](CC(C)C)NC(=O)[C@H](CCCNC(=N)N)NC(=O)[C@H](CO)NC3=O)NC(=O)[C@H](CCCCN)NC(=O)[C@H](CC(=O)O)NC(=O)[C@H](CC(N)=O)NC(=O)[C@H](CC(=O)O)NC(=O)[C@@H]2CCCN2C1=O [mGpTx1] (H-DCLGAFRKCIPDNDKCCRPNLVCSRLHRWCKYVF-NH2; disulfide 2-17, 9-23, 16-30) | no obvious or only minimal effect | 2850 ± 1310 | 320 ± 45 | 646 ± 135 |  | 8 ± 1.2 | 17 ± 5
